According to patent US11524950B2, “Treatment of immune-related and inflammatory diseases” (Celgene Corporation, priority 2012, dated 2022):
pEC50, pIC50: −log10 of the molar value.

Assays:
CRBN = molecular target: T1, CRBN (Homo sapiens, UniProt Q96SW2); experiment: Competitive CRBN binding with thalidomide analog-conjugated beads (U266 extracts); settings: preincubation at 3 uM
T1 construct: endogenous in cells; host or cells: U266 multiple myeloma cells (cell extracts)
Description: Binding studies to CRBN were conducted using thalidomide analog-conjugated beads in a competitive assay. […] Affinity beads coupled to a thalidomide acid analog were incubated with the U266 extracts and, after extensive washing of the beads, the bound proteins were eluted. CRBN binding to the thalidomide-coupled affinity beads was determined by quantitative CRBN immunoblot determination.

IL-2 = experiment: T-cell costimulation: IL-2 production (immobilized anti-CD3, ELISA); assay type: cell-based; settings: Homo sapiens, 48 h, read-out: EC50 for co-stimulated IL-2 production by T cells
Description: CRBN ubiquitination was measured in HEK293T cells, which were transfected with an amino-terminal His-biotin-tagged CRBN construct, then preincubated with compounds for one hour followed by treatment with the MG132 proteasome inhibitor (to arrest degradation of ubiquitinated proteins). Cells were lysed and processed to measure CRBN ubiquitination by SDS-PAGE and immunoblot analysis using an anti-ubiquitin antibody. Cell proliferation studies were conducted in enalidomide-sensitive and refractory multiple myeloma cells. […] T-cell costimulation was measured in purified primary human T cells stimulated using immobilized anti-CD3 antibody in cell culture for 2 days, and cytokine secretion was measured by ELISA.

IgM [1] = experiment: IgM production in normal PBMC differentiation cultures (ELISA); settings: Homo sapiens, read-out: IgM IC50 (nM) Normal (n = 3)
IgG [2] = experiment: IgG production in normal B cell / PBMC differentiation cultures (ELISA); settings: Homo sapiens; for IC50: PBMC, read-out: IgG IC50 (nM) Normal (n = 3); for pIC50: read-out: IgG production IC50
IgG [3] = experiment: IgG production by SLE patient PBMC (ELISA); settings: Homo sapiens, read-out: IgG IC50 (nM) SLE (n = 3)
IgM [4] = experiment: IgM production by SLE patient PBMC (ELISA); settings: Homo sapiens, read-out: IgM IC50 (nM) SLE (n = 3)
DBA/2 mice [5] = experiment: Bleomycin-induced dermal fibrosis mouse model (regression of established fibrosis); assay type: in vivo; settings: 50 mg/kg, p<0.0001
Description: (§1) DBA/2 mice were used in this study. Eight animals were used per treatment group in the study. Mice were kept in the animal house under standard conditions with food and water ad libidum.
(§2) The compound was suspended, not dissolved, in this vehicle. The formulation was homogenized with a Teflon pestle and mortar (Potter-Elvehjem tissue grinder) using a motorized Eberbach tissue homogenizer. The daily drug stock concentration used in these studies was 3 mg/ml.
(§3) Bleomycin was obtained from the pharmacy of the University of Erlangen-Nuremberg and freshly prepared once a week. Skin fibrosis was induced in 6-week-old DBA mice by local intracutaneous injections of 100 μl of bleomycin dissolved in 0.9% NaCl, at a concentration of 0.5 mg/ml, every other day in defined areas of 1.5 cm^2 on the upper back.
To evaluate regression of fibrosis, a modified model of bleomycin induced dermal fibrosis was used. Mice were pre-challenged with bleomycin to induce a robust skin fibrosis. One group received treatment with the test compound, while challenge with bleomycin was ongoing for additional three weeks. The outcome of this group was compared to mice challenged with bleomycin for six weeks (prevention of further progression) and to mice challenged with bleomycin for three weeks followed by NaCl for additional three weeks (induction of regression). The following groups were used in the regression study: • Control group: Intradermal injection of NaCl for six weeks. Control treatment consisted of administration of the vehicle. • Untreated bleomycin group 1 (regression): Intradermal injection of bleomycin for three weeks followed by intradermal injections of NaCl for another three weeks. Treatment consisted of administration of the vehicle. […]
(§4) Dermal thickness was determined by staining with hematoxylin and eosin and activated fibroblasts by using immunohistochemistry for alpha smooth muscle actin (α-SMA). The dermal thickness, as determined by the modified Rodnan Skin Score, is currently the most common primary outcome in human clinical trials for anti-fibrotic agents in SSc. […] Dermal thickness was analyzed with a Nikon Eclipse 80i microscope (Nikon, Badhoevedorp, The Netherlands) by measuring the maximal distance between the epidermal-dermal junction and the dermal-subcutaneous fat junction at 4 different skin sections in each mouse. […]
(§5) For quantification of myofibroblasts, skin sections were deparaffinized and incubated with 5% bovine serum albumin for 60 minutes. Cells positive for α-SMA were detected by incubation with monoclonal anti-α-SMA antibodies (clone 1A4; Sigma-Aldrich, Steinheim, Germany) for 2 hours at room temperature followed by incubation with 3% hydrogen peroxide for 10 minutes. […]

DBA/2 mice [6] = experiment: Bleomycin-induced dermal fibrosis mouse model (prevention); assay type: in vivo; settings: 50 mg/kg, IP, QD, p<0.0001
Description: as §1
The vehicle, 0.5% carboxymethyl cellulose (CMC)/0.25% Tween 80, was prepared in distilled H2O and dissolved overnight on a magnetic stirrer (add 0.5 g CMC; Sigma #C9481) and 0.25 ml Tween 80 (Sigma #P8074) to 99.75 ml to make a total of 100 ml 0.5% CMC/0.25% Tween 80).
as §2, §3
The mouse model of bleomycin induced dermal fibrosis is widely used to evaluate anti-fibrotic therapeutics. In this model, a localized dermal fibrosis is induced by intradermal injections with bleomycin every other day for 3 weeks. This model resembles early, inflammatory stages of SSc. To evaluate potential effects on prevention of fibrosis, treatment was initiated simultaneously with the first bleomycin injection. […] Treatment consisted of administration of the vehicle (0.5% CMC/0.25% Tween 80). • Untreated bleomycin group: Intradermal injection of bleomycin for three weeks. […] Injection of Imatinib (50 mg/kg; IP, QD). […] See Akhmetshina A. et al., Arthritis Rheum 2009; 60(1):219-224.
as §4, §5

Tsk-1 mouse = experiment: Tight skin-1 (Tsk-1) mouse model: hypodermal thickness and hydroxyproline; assay type: in vivo; settings: 50 mg/kg; p≤0.001
From the text: First, the inhibitory effects of the compound on fibrosis in the Tsk-1 tight skin mouse model were also investigated.

SMILES	IC50 (IgM [1]) [nM]	IC50 (IgG [2]) [nM]	pIC50 (IgG [2])	IC50 (IgG [3]) [nM]	IC50 (IgM [4]) [nM]	further results
Nc1cccc2c1C(=O)N(C1CCC(=O)NC1=O)C2=O (stereo not drawn) [pomalidomide]	17	63	7.31	19	3.8	less CRBN bound to the affinity beads (CRBN): approximately 50%; pEC50 (IL-2): 8.00
CCOc1cc([C@@H](CS(C)(=O)=O)N2C(=O)c3cccc(NC(C)=O)c3C2=O)ccc1OC [apremilast]	> 10000	> 10000	–	> 10000	> 10000	–
Nc1cccc2c1CN(C1CCC(=O)NC1=O)C2=O (stereo not drawn) [lenalidomide]	–	–	6.49	–	–	–
Cc1ccc(NC(=O)c2ccc(CN3CCN(C)CC3)cc2)cc1Nc1nccc(-c2cccnc2)n1 [Imatinib, reference compound]	–	–	–	–	–	reduction of bleomycin induced dermal thickness (DBA/2 mice [5]): 50±0.3%; reduction of myofibroblast numbers (DBA/2 mice [5]): 78±0.15%; reduction of dermal thickening (DBA/2 mice [6]; 3 weeks): 60±0.34%; reduction of myofibroblast numbers (DBA/2 mice [6]): 81±0.11%; reduction of collagen content of the skin (hydroxyproline levels) (Tsk-1 mouse): 67%; reduction of hypodermal thickening (Tsk-1 mouse): 58%
